target: T1, recombinant human SYK360-635 (Homo sapiens, UniProt P43405); experiment: Determination of IC50 of Spleen Tyrosine Kinase (SYK) inhibition, 33P ATP filtration assay; format: biochemical; settings: SYK aa 360-635 0.5 nM; ATP 20 μM, peptide 5 μM, 0.1% BSA; read-out: SYK_ENZYME_FILTRATION/v1, BSA
T1 construct: made in house

SMILES	IC50
Cn1nc(-c2cnc3[nH]cc(C(=O)NC(C)(C)C)c3n2)c2cc(C3CC3)ccc21 [Example I-197, 2-(5-Cyclopropyl-1-methyl-1H-indazol-3-yl)-5H-pyrrolo[2,3-b]pyrazine-7-carboxylic acid tert-butylamide]	4.79 nM
Cc1ccc2c(-c3cnc4[nH]cc(C(=O)NC(C)(C)CO)c4n3)nn(CCCN3CCOCC3)c2c1 [Example I-438, 2-[6-Methyl-1-(3-morpholin-4-yl-propyl)-1H-indazol-3-yl]-5H-pyrrolo[2,3-b]pyrazine-7-carboxylic acid (2-hydroxy-1,1-dimethyl-ethyl)-amide]	27.4 nM
Cn1nc(-c2cnc3[nH]cc(C(=O)NC(C)(C)C(C)(C)N)c3n2)c2ccc(F)cc21 [Example I-393, 2-(6-Fluoro-1-methyl-1H-indazol-3-yl]-5H-pyrrolo[2,3-b]pyrazine-7-carboxylic acid (2-amino-1,1,2-trimethyl-propyl)-amide]	492 nM
CC(C)c1ccc2c(c1)c(-c1cnc3[nH]cc(C(=O)NC(C)(C)C)c3n1)nn2C [Example I-458, N-tert-Butyl-2-(5-isopropyl-1-methyl-1H-indazol-3-yl)-5H-pyrrolo[2,3-b]pyrazine-7-carboxamide]	15.1 nM
Cn1nc(-c2cnc3[nH]cc(C(=O)NC(C)(C)C)c3n2)c2cccnc21 [Example I-373, 2-(1-Methyl-1H-pyrazolo[3,4-b]pyridin-3-yl)-5H-pyrrolo[2,3-b]pyrazine-7-carboxylic acid tert-butylamide]	19 nM
CC(CC1CC1)NC(=O)c1c[nH]c2ncc(-c3nn(C)c4cc(F)ccc34)nc12 (stereo not drawn) [Example I-186, 2-(6-Fluoro-1-methyl-1H-indazol-3-yl)-5H-pyrrolo[2,3-b]pyrazine-7-carboxylic acid (2-cyclopropyl-1-methyl-ethyl)-amide]	129 nM
NC(=O)c1c[nH]c2ncc(-c3nn(CC(=O)N4CCOCC4)c4cc(F)ccc34)nc12 [Example I-314, 2-[6-Fluoro-1-(2-morpholin-4-yl-2-oxo-ethyl)-1H-indazol-3-yl]-5H-pyrrolo[2,3-b]pyrazine-7-carboxylic acid amide]	155 nM
Cn1nc(-c2cnc3[nH]cc(C(=O)NC(C)(C)CO)c3n2)c2ccc(OC(F)(F)F)cc21 [Example I-371, 2-(1-Methyl-6-trifluoromethoxy-1H-indazol-3-yl)-5H-pyrrolo[2,3-b]pyrazine-7-carboxylic acid (2-hydroxy-1,1-dimethyl-ethyl)-amide]	23.1 nM
Cn1nc(-c2cnc3[nH]cc(C(=O)NC(C)(C)CO)c3n2)c2ccc(C#N)cc21 [Example I-398, 2-(6-Cyano-1-methyl-1H-indazol-3-yl)-5H-pyrrolo[2,3-b]pyrazine-7-carboxylic acid (2-hydroxy-1,1-dimethyl-ethyl)-amide]	12.2 nM
Cn1nc(-c2cnc3[nH]cc(C(=O)NC(C)(C)c4ccccc4)c3n2)c2ccc(Cl)cc21 [Example I-388, 2-(6-Chloro-1-methyl-1H-indazol-3-yl)-5H-pyrrolo[2,3-b]pyrazine-7-carboxylic acid (1-methyl-1-phenyl-ethyl)-amide]	63.8 nM
CC(C)NC(=O)c1c[nH]c2ncc(-c3nn(C)c4ccc(C5CC5)cc34)nc12 [Example I-195, 2-(5-Cyclopropyl-1-methyl-1H-indazol-3-yl)-5H-pyrrolo[2,3-b]pyrazine-7-carboxylic acid isopropylamide]	12 nM
CNCCCn1nc(-c2cnc3[nH]cc(C(=O)NC(C)(C)C)c3n2)c2cc(OC(F)F)ccc21 [Example I-345, 2-[5-Difluoromethoxy-1-(3-methylamino-propyl)-1H-indazol-3-yl]-5H-pyrrolo[2,3-b]pyrazine-7-carboxylic acid tert-butylamide]	5.12 nM
CCc1cccc2c(-c3cnc4[nH]cc(C(=O)NC(C)(C)C)c4n3)n[nH]c12 [Example I-355, 2-(7-Ethyl-1H-indazol-3-yl)-5H-pyrrolo[2,3-b]pyrazine-7-carboxylic acid tert-butylamide]	3.19 nM
CN1CCC(n2nc(-c3cnc4[nH]cc(C(=O)NC(C)(C)C)c4n3)c3cc(OC(F)F)ccc32)CC1 [Example I-263, 2-[5-Difluoromethoxy-1-(1-methyl-piperidin-4-yl)-1H-indazol-3-yl]-5H-pyrrolo[2,3-b]pyrazine-7-carboxylic acid tert-butylamide]	14.4 nM
Cc1cc2cccc(-c3cnc4[nH]cc(C(=O)NC(C)(C)C)c4n3)c2[nH]1 [Example I-303, 2-(2-Methyl-1H-indol-7-yl)-5H-pyrrolo[2,3-b]pyrazine-7-carboxylic acid tert-butylamide]	64.1 nM

More lines, now with the values ahead:

IC50	SMILES
43.4 nM	CC(C)(C)NC(=O)c1c[nH]c2ncc(-n3ncc4cc(F)ccc43)nc12 [Example I-326, 2-(5-Fluoro-indazol-1-yl)-5H-pyrrolo[2,3-b]pyrazine-7-carboxylic acid tert-butylamide]
19.9 nM	CC(C)(C)NC(=O)c1c[nH]c2ncc(-c3nn(CC(F)(F)F)c4cc(F)ccc34)nc12 [Example I-418, 2-[6-Fluoro-1-(2,2,2-trifluoro-ethyl)-1H-indazol-3-yl]-5H-pyrrolo[2,3-b]pyrazine-7-carboxylic acid tert-butylamide]
30.3 nM	Cn1nc(-c2cnc3[nH]cc(C(=O)N[C@H]4C[C@@H](N)C4)c3n2)c2ccc(F)cc21 [Example I-271, 2-(6-Fluoro-1-methyl-1H-indazol-3-yl)-5H-pyrrolo[2,3-b]pyrazine-7-carboxylic acid (cis-3-amino-cyclobutyl)-amide]
42.9 nM	Cn1nc(-c2cnc3[nH]cc(C(=O)NC(C)(C)C)c3n2)c2ncccc21 [Example I-259, 2-(1-Methyl-1H-pyrazolo[4,3-b]pyridin-3-yl)-5H-pyrrolo[2,3-b]pyrazine-7-carboxylic acid tert-butylamide]
11.9 nM	Cc1ccc2c(-c3cnc4[nH]cc(C(=O)NC(C)(C)C5CC5)c4n3)nn(C)c2c1 [Example I-428, 2-(1,6-Dimethyl-1H-indazol-3-yl)-5H-pyrrolo[2,3-b]pyrazine-7-carboxylic acid (1-cyclopropyl-1-methyl-ethyl)-amide]
8 nM	Cc1cccc2c(-c3cnc4[nH]cc(C(=O)NC(C)(C)C)c4n3)n[nH]c12 [Example I-369, 2-(7-Methyl-1H-indazol-3-yl)-5H-pyrrolo[2,3-b]pyrazine-7-carboxylic acid tert-butylamide]
18.4 nM	CC(C)(C)NC(=O)c1c[nH]c2ncc(-c3nn(CC4CC4)c4ccc(OC(F)F)cc34)nc12 [Example I-351, 2-(1-Cyclopropylmethyl-5-difluoromethoxy-1H-indazol-3-yl)-5H-pyrrolo[2,3-b]pyrazine-7-carboxylic acid tert-butylamide]
14.3 nM	CC(C)(C)NC(=O)c1c[nH]c2ncc(-c3nn(CC(=O)N4CCOCC4)c4cc(F)ccc34)nc12 [Example I-251, 2-[6-Fluoro-1-(2-morpholin-4-yl-2-oxo-ethyl)-1H-indazol-3-yl]-5H-pyrrolo[2,3-b]pyrazine-7-carboxylic acid tert-butylamide]
8 nM	Cn1nc(-c2cnc3[nH]cc(C(=O)NC(C)(C)CO)c3n2)c2cc(C3CC3)ccc21 [Example I-196, 2-(5-Cyclopropyl-1-methyl-1H-indazol-3-yl)-5H-pyrrolo[2,3-b]pyrazine-7-carboxylic acid (2-hydroxy-1,1-dimethyl-ethyl)-amide]
322 nM	Cn1nc(-c2cnc3[nH]cc(C(=O)NC(C)(C)CCN)c3n2)c2ccc(F)cc21 [Example I-415, 2-(6-Fluoro-1-methyl-1H-indazol-3-yl)-5H-pyrrolo[2,3-b]pyrazine-7-carboxylic acid (3-amino-1,1-dimethyl-propyl)-amide]
7.95 nM	COc1ccc2c(c1)c(-c1cnc3[nH]cc(C(=O)NC(C)(C)CO)c3n1)nn2C [Example I-288, 2-(5-Methoxy-1-methyl-1H-indazol-3-yl)-5H-pyrrolo[2,3-b]pyrazine-7-carboxylic acid (2-hydroxy-1,1-dimethyl-ethyl)-amide]
57.4 nM	Cc1ccc2c(-c3cnc4[nH]cc(C(=O)NC(C)(C)CO)c4n3)nn(CCN(C)C)c2c1 [Example I-426, 2-[1-(2-Dimethylamino-ethyl)-6-methyl-1H-indazol-3-yl]-5H-pyrrolo[2,3-b]pyrazine-7-carboxylic acid (2-hydroxy-1,1-dimethyl-ethyl)-amide]
69.5 nM	Cc1ccc2cnn(-c3cnc4[nH]cc(C(=O)NC(C)(C)C)c4n3)c2c1 [Example I-331, 2-(6-Methyl-indazol-1-yl)-5H-pyrrolo[2,3-b]pyrazine-7-carboxylic acid tert-butylamide]
4.7 nM	Cn1nc(-c2cnc3[nH]cc(C(=O)NC(C)(C)C)c3n2)c2ccccc21 [Example I-410, 2-(1-Methyl-1H-indazol-3-yl)-5H-pyrrolo[2,3-b]pyrazine-7-carboxylic acid tert-butylamide]
186 nM	Cn1nc(-c2cnc3[nH]cc(C(=O)Nc4cccnc4)c3n2)c2ccc(Cl)cc21 [Example I-405, 2-(6-Chloro-1-methyl-1H-indazol-3-yl)-5H-pyrrolo[2,3-b]pyrazine-7-carboxylic acid pyridin-3-ylamide]
112 nM	COC(=O)c1cnc([C@H](C)NC(=O)c2c[nH]c3ncc(-c4nn(C)c5cc(F)ccc45)nc23)[nH]1 [Example I-359, 2-((S)-1-{[2-(6-Fluoro-1-methyl-1H-indazol-3-yl)-5H-pyrrolo[2,3-b]pyrazine-7-carbonyl]-amino}-ethyl)-3H-imidazole-4-carboxylic acid methyl ester]
2.27 nM	Cn1nc(-c2cnc3[nH]cc(C(=O)NC4(C)CC4)c3n2)c2ccc(Cl)cc21 [Example I-395, 2-(6-Chloro-1-methyl-1H-indazol-3-yl)-5H-pyrrolo[2,3-b]pyrazine-7-carboxylic acid (1-methyl-cyclopropyl)-amide]
7.35 nM	CC(C)(C)NC(=O)c1c[nH]c2ncc(-c3cccc4cc[nH]c34)nc12 [Example I-304, 2-(1H-Indol-7-yl)-5H-pyrrolo[2,3-b]pyrazine-7-carboxylic acid tert-butylamide]
